Measurements taken from PubChem BioAssay (NCI).
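Grown in 96-well plates, cells were treated for 48 hours with each compound at five concentrations. Insufficient inhibition: endpoint recorded as highest concentration tested. GI50 = concentration required for 50% inhibition of growth. TGI is the concentration that stops growth completely.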

Key:
Experiment in all cases: NCI-60 cell line screen, 48 h; in the data active = GI50 below about 0.43 µM; inactive = the rest
[1] = tested on: SF-539 CNS
[2] = tested on: PC-3 prostate
[3] = tested on: RXF 393 renal
[4] = tested on: K-562 leukemia
[5] = tested on: 786-0 renal
[6] = tested on: U251 CNS
[7] = tested on: NCI-H522 lung
[8] = tested on: CCRF-CEM leukemia
[9] = tested on: SK-MEL-5 melanoma
[10] = tested on: DU-145 prostate
[11] = tested on: MDA-MB-435
[12] = tested on: SNB-75 CNS
[13] = tested on: T-47D breast
[14] = tested on: IGROV1 ovarian
[15] = tested on: CAKI-1 renal
[16] = tested on: NCI-H460 lung
[17] = tested on: OVCAR-3 ovarian
[18] = tested on: HCC-2998 colon
[19] = tested on: SNB-19 CNS
[20] = tested on: HCT-116 colon
[21] = tested on: OVCAR-4 ovarian
[22] = tested on: KM12 colon
[23] = tested on: NCI-H226 lung
[24] = tested on: SW-620 colon
[25] = tested on: COLO 205 colon
[26] = tested on: HOP-62 NSCLC
[27] = tested on: ACHN renal
[28] = tested on: SF-295 CNS
[29] = tested on: BT-549 breast
[30] = tested on: MDA-MB-231 breast
[31] = tested on: OVCAR-8 ovarian
[32] = tested on: TK-10 renal
[33] = tested on: M14 melanoma
[34] = tested on: EKVX NSCLC
[35] = tested on: MOLT-4 leukemia
[36] = tested on: A549 NSCLC
[37] = tested on: MCF7 breast
[38] = tested on: NCI/ADR-RES ovarian
[39] = tested on: SK-MEL-28 melanoma
[40] = tested on: OVCAR-5 ovarian
[41] = tested on: UACC-62 melanoma
[42] = tested on: HT29 colon
[43] = tested on: SK-MEL-2 melanoma
[44] = tested on: RPMI-8226 leukemia
[45] = tested on: NCI-H23 lung
[46] = tested on: UO-31 renal
[47] = tested on: UACC-257 melanoma
[48] = tested on: SK-OV-3 ovarian
[49] = tested on: HCT-15 colon
[50] = tested on: SF-268 CNS
[51] = tested on: LOX IMVI melanoma
[52] = tested on: HS 578T breast
[53] = tested on: HOP-92 NSCLC
[54] = tested on: SN12C renal

O=C(Cc1csc2nc(-c3ccc(Br)cc3)cn12)N/N=C/c1cc(Br)ccc1O
28 µM: TGI [51]
41.3 µM: TGI [26]
30.4 µM: TGI [33]
45.4 µM: TGI [9]
17 µM: TGI [32]
26.2 µM: TGI [45]
66.8 µM: TGI [30]
28.6 µM: TGI [41]
34.9 µM: TGI [15]
6.75 µM: TGI [38]
13.9 µM: TGI [4]
73.5 µM: TGI [40]
79.6 µM: TGI [54]
42.9 µM: TGI [27]
65.1 µM: TGI [23]
88.3 µM: TGI [28]
63.2 µM: TGI [47]
53.8 µM: TGI [1]
38.6 µM: TGI [8]
48.2 µM: TGI [20]
> 100 µM: TGI [2] | TGI [3] | TGI [5] | TGI [6] | TGI [7] | TGI [10] | TGI [11] | TGI [12] | TGI [13] | TGI [14] | TGI [16] | TGI [17] | TGI [19] | TGI [21] | TGI [22] | TGI [24] | TGI [25] | TGI [29] | TGI [31] | TGI [34] | TGI [36] | TGI [37] | TGI [39] | TGI [42] | TGI [43] | TGI [44] | TGI [46] | TGI [48] | TGI [49] | TGI [50] | TGI [52] | TGI [53]
inactive: GI50 [1] 14.9 µM | GI50 [2] 9.46 µM | GI50 [3] 63.9 µM | GI50 [4] 3.02 µM | GI50 [5] 15 µM | GI50 [6] 11.3 µM | GI50 [7] 11.3 µM | GI50 [8] 3.89 µM | GI50 [9] 11.4 µM | GI50 [10] 19.5 µM | GI50 [11] 18 µM | GI50 [12] > 100 µM | GI50 [13] 35.3 µM | GI50 [14] 1.77 µM | GI50 [15] 4.53 µM | GI50 [16] > 100 µM | GI50 [17] 45.3 µM | GI50 [18] 5.5 µM | GI50 [19] 26.1 µM | GI50 [20] 4.31 µM | GI50 [21] 50.2 µM | GI50 [22] 29.6 µM | GI50 [23] 23.3 µM | GI50 [24] 5.51 µM | GI50 [25] 23.9 µM | GI50 [26] 9.77 µM | GI50 [27] 6.13 µM | GI50 [28] 14 µM | GI50 [29] 27.7 µM | GI50 [30] 11.8 µM | GI50 [31] 7.06 µM | GI50 [32] 4.33 µM | GI50 [33] 14.3 µM | GI50 [34] 24.2 µM | GI50 [35] 0.674 µM | GI50 [36] 18.8 µM | GI50 [37] > 100 µM | GI50 [38] 2.23 µM | GI50 [39] 48.8 µM | GI50 [40] 14 µM | GI50 [41] 10.4 µM | GI50 [42] 34.7 µM | GI50 [43] 89 µM | GI50 [44] 5.04 µM | GI50 [45] 4.32 µM | GI50 [46] 24 µM | GI50 [47] 20.1 µM | GI50 [48] > 100 µM | GI50 [49] 5.6 µM | GI50 [50] > 100 µM | GI50 [51] 6.79 µM | GI50 [52] 53.3 µM | GI50 [53] 22.2 µM | GI50 [54] 16.6 µM
8.41 µM: TGI [35]
19.7 µM: TGI [18]
